Assay results taken from patent publication US20180148418A1, “AMIDO-SUBSTITUTED CYCLOHEXANE DERIVATIVES” (Bayer Pharma Aktiengesellschaft, priority 2015, published 2018).
Structures can show the parent of a compound that is named as a salt.

What was measured:
[1] = molecular target: T1, TNKS2 (Homo sapiens, UniProt Q9H2K2); test: TNKS2 Assay B (auto-parsylation, [3H]-NAD+ SPA); type: biochemical; conditions: 6 nM TNKS2, auto-parsylation, over night at room temperature
T1 construct: purchased BPS Bioscience, San Diego, USA 80572 (TNKS2 Histone Ribosylation Assay Kit)
T1 sequence (Q9H2K2 1-1166): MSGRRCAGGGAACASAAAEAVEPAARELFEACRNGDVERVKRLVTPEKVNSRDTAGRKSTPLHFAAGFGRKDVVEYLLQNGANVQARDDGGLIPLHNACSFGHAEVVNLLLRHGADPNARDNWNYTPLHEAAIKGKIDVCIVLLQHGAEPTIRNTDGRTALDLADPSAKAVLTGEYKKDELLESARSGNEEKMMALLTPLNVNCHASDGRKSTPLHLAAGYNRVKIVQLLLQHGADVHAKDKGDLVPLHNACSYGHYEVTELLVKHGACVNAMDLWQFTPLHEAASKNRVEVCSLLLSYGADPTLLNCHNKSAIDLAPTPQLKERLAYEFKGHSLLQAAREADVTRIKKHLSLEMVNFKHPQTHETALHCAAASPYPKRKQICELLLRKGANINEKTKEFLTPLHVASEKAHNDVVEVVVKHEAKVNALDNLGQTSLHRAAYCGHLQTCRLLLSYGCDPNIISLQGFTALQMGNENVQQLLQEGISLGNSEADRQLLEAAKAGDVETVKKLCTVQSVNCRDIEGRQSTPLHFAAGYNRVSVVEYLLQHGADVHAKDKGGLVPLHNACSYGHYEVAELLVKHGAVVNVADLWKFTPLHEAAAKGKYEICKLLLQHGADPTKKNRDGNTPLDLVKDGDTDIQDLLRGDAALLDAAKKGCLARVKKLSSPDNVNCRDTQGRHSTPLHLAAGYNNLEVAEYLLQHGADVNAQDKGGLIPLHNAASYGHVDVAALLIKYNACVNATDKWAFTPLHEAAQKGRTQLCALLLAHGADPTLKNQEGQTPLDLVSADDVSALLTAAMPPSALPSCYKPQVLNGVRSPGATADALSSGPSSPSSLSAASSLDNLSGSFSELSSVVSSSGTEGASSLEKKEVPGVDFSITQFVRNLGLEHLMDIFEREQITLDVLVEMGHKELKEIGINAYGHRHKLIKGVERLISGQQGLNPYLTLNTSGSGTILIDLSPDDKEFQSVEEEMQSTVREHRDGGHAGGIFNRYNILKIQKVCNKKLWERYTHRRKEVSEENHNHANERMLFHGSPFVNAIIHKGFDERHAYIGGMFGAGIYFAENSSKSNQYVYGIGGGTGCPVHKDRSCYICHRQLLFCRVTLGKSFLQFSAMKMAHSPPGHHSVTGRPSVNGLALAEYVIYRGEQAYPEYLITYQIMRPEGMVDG

[2] = test system: wildtype Wnt signaling cascade; test: HEK293 TOP assay (Super TopFlash luciferase reporter, Wnt-3a stimulated); type: cell-based; conditions: Homo sapiens, HEK293, 16 h, HEK293 TOP reporter cells, Wnt3a at EC50, 16 hours
In short: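 Compound series (50 μM down to 15 nM, 3.16-fold) diluted from DMSO 50-fold into CAFTY buffer, pH 7.4, 2 mM Ca^2+, 0.01% BSA, applied to Wnt-3a-stimulated HEK293 TopFlash and FOP reporter lines in parallel. Cells seeded 10000/well 24 h before; luciferase signal measured.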

SMILES	IC50 [1] [nM]	IC50 [2] [nM]
Cc1cc(C)n2ncc(C(=O)N[C@H]3CC[C@]4(CCN(c5ccc(F)cc5)C4=O)CC3)c2n1 [Example 208, N-[(cis)-2-(4-fluorophenyl)-1-oxo-2-azaspiro[4.5]dec-8-yl]-5,7-dimethyl pyrazolo[1,5-a]pyrimidine-3-carboxamide]	3200	660
O=C(N[C@H]1CC[C@@]2(CCN(c3ccc(F)cc3)C2=O)CC1)c1cnn2cccnc12 [Example 209, N-[(trans)-2-(4-fluorophenyl)-1-oxo-2-azaspiro[4.5]dec-8-yl]pyrazolo[1,5-a]pyrimidine-3-carboxamide]	240	99
Cc1cnc2c(C(=O)N[C@H]3CC[C@@]4(CCN(c5ccc(F)cc5)C4=O)CC3)cnn2c1 [Example 210, N-[(trans)-2-(4-fluorophenyl)-1-oxo-2-azaspiro[4.5]dec-8-yl]-6-methylpyrazolo[1,5-a]pyrimidine-3-carboxamide]	92	280
Cc1cc(C)n2ncc(C(=O)N[C@H]3CC[C@@]4(CCN(c5ccc(F)cc5)C4=O)CC3)c2n1 [Example 211, N-[(trans)-2-(4-fluorophenyl)-1-oxo-2-azaspiro[4.5]dec-8-yl]-5,7-di methyl pyrazolo[1,5-a]pyrimidine-3-carboxamide]	74	270
CNC(=O)c1[nH]cnc1C(=O)N[C@H]1CC[C@@]2(CCN(c3ccc(F)cc3)C2=O)CC1 [Example 212, N^4-[(trans)-2-(4-fluorophenyl)-1-oxo-2-azaspiro[4.5]dec-8-yl]-N^5-methyl-1H-imidazole-4,5-dicarboxamide]	290	88
CCNC(=O)c1[nH]cnc1C(=O)N[C@H]1CC[C@@]2(CCN(c3ccc(F)cc3)C2=O)CC1 [Example 213, N^5-ethyl-N^4-[(trans)-2-(4-fluorophenyl)-1-oxo-2-azaspiro[4.5]dec-8-yl]-1H-imidazole-4,5-dicarboxamide]	220	140
O=C(N[C@H]1CC[C@@]2(CCN(c3ccc(F)cc3Cl)C2=O)CC1)c1cnn2cc(CCO)cnc12 [Example 214, N-[(trans)-2-(2-chloro-4-fluorophenyl)-1-oxo-2-azaspiro[4.5]dec-8-yl]-6-(2-hydroxyethyl)pyrazolo[1,5-a]pyrimidine-3-carboxamide]	5.3	16
Cc1nn2cccnc2c1C(=O)N[C@H]1CC[C@@]2(CCN(c3ccc(F)cc3Cl)C2=O)CC1 [Example 216, N-[(trans)-2-(2-chloro-4-fluorophenyl)-1-oxo-2-azaspiro[4.5]dec-8-yl]-2-methylpyrazolo[1,5-a]pyrimidine-3-carboxamide]	340	71
COc1ccn2ncc(C(=O)N[C@H]3CC[C@@]4(CCN(c5ccc(F)cc5Cl)C4=O)CC3)c2n1 [Example 218, N-[(trans)-2-(2-chloro-4-fluorophenyl)-1-oxo-2-azaspiro[4.5]dec-8-yl]-5-methoxypyrazolo[1,5-a]pyrimidine-3-carboxamide]	4.8	16
Cc1ccnc2c(C(=O)N[C@H]3CC[C@@]4(CCN(c5ccc(F)cc5Cl)C4=O)CC3)cnn12 [Example 222, N-[(trans)-2-(2-chloro-4-fluorophenyl)-1-oxo-2-azaspiro[4.5]dec-8-yl]-7-methylpyrazolo[1,5-a]pyrimidine-3-carboxamide]	6.5	2.1
Cc1cc(C(F)F)n2ncc(C(=O)N[C@H]3CC[C@@]4(CCN(c5ccc(F)cc5Cl)C4=O)CC3)c2n1 [Example 224, N-[(trans)-2-(2-chloro-4-fluorophenyl)-1-oxo-2-azaspiro[4.5]dec-8-yl]-7-(difluoromethyl)-5-methylpyrazolo[1,5-a]pyrimidine-3-carboxamide]	11	0.83
O=C(N[C@H]1CC[C@@]2(CCN(c3ccc(F)cc3Cl)C2=O)CC1)c1cnn2c(C(F)(F)F)ccnc12 [Example 233, N-[(trans)-2-(2-chloro-4-fluorophenyl)-1-oxo-2-azaspiro[4.5]dec-8-yl]-7-(trifluoromethyl)pyrazolo[1,5-a]pyrimidine-3-carboxamide]	25	9
O=C(N[C@H]1CC[C@@]2(CCN(c3ccccc3Cl)C2=O)CC1)c1cnn2cccnc12 [Example 256, N-[(trans)-2-(2-chlorophenyl)-1-oxo-2-azaspiro[4.5]dec-8-yl]pyrazolo[1,5-a]pyrimidine-3-carboxamide]	12	2.3
Cc1cc(C)n2ncc(C(=O)N[C@H]3CC[C@@]4(CCN(c5ccccc5Cl)C4=O)CC3)c2n1 [Example 257, N-[(trans)-2-(2-chlorophenyl)-1-oxo-2-azaspiro[4.5]dec-8-yl]-5,7-dimethylpyrazolo[1,5-a]pyrimidine-3-carboxamide]	5.7	1.4
CCNC(=O)c1nc[nH]c1C(=O)N[C@H]1CC[C@@]2(CCN(c3ccccc3Cl)C2=O)CC1 [Example 258, N^5-[(trans)-2-(2-chlorophenyl)-1-oxo-2-azaspiro[4.5]dec-8-yl]-N^4-ethyl-1H-imidazole-4,5-dicarboxamide]	6.3	2.3
COCCNC(=O)c1nc[nH]c1C(=O)N[C@H]1CC[C@@]2(CCN(c3ccccc3Cl)C2=O)CC1 [Example 259, N^5-[(trans)-2-(2-chlorophenyl)-1-oxo-2-azaspiro[4.5]dec-8-yl]-N^4-(2-methoxyethyl)-1H-imidazole-4,5-dicarboxamide]	6.3	8.6

Compounds with a lower IC50 [1], results first:

IC50 [1] [nM]	IC50 [2] [nM]	SMILES
2.2	5.5	CNc1ccn2ncc(C(=O)N[C@H]3CC[C@@]4(CCN(c5ccc(F)cc5Cl)C4=O)CC3)c2n1 [Example 215, N-[(trans)-2-(2-chloro-4-fluorophenyl)-1-oxo-2-azaspiro[4.5]dec-8-yl]-5-(methylamino)pyrazolo[1,5-a]pyrimidine-3-carboxamide]
1.7	3.7	CN(C)c1ccn2ncc(C(=O)N[C@H]3CC[C@@]4(CCN(c5ccc(F)cc5Cl)C4=O)CC3)c2n1 [Example 217, N-[(trans)-2-(2-chloro-4-fluorophenyl)-1-oxo-2-azaspiro[4.5]dec-8-yl]-5-(dimethylamino)pyrazolo[1,5-a]pyrimidine-3-carboxamide]
3.8	1.5	Cc1ccn2ncc(C(=O)N[C@H]3CC[C@@]4(CCN(c5ccc(F)cc5Cl)C4=O)CC3)c2n1 [Example 221, N-[(trans)-2-(2-chloro-4-fluorophenyl)-1-oxo-2-azaspiro[4.5]dec-8-yl]-5-methylpyrazolo[1,5-a]pyrimidine-3-carboxamide]
2.5	59	CC(C)(C)OC(=O)N1CCN(c2ccn3ncc(C(=O)N[C@H]4CC[C@@]5(CCN(c6ccc(F)cc6Cl)C5=O)CC4)c3n2)CC1 [Example 225, tert-butyl 4-(3-{[(trans)-2-(2-chloro-4-fluorophenyl)-1-oxo-2-azaspiro[4.5]dec-8-yl]carbamoyl}pyrazolo[1,5-a]pyrimidin-5-yl)piperazine-1-carboxylate]
3.3	32	O=C(N[C@H]1CC[C@@]2(CCN(c3ccc(F)cc3Cl)C2=O)CC1)c1cnn2ccc(N3CCNCC3)nc12 [Example 226, N-[(trans)-2-(2-chloro-4-fluorophenyl)-1-oxo-2-azaspiro[4.5]dec-8-yl]-5-(piperazin-1-yl)pyrazolo[1,5-a]pyrimidine-3-carboxamide hydrochloric acid salt]
3.3	6.4	O=C(N[C@H]1CC[C@@]2(CCN(c3ccc(F)cc3Cl)C2=O)CC1)c1cnn2ccc(N3CCCC3)nc12 [Example 232, N-[(trans)-2-(2-chloro-4-fluorophenyl)-1-oxo-2-azaspiro[4.5]dec-8-yl]-5-(pyrrolidin-1-yl)pyrazolo[1,5-a]pyrimidine-3-carboxamide]
1.7	2.8	CC1CCN(CCNC(=O)c2nc[nH]c2C(=O)N[C@H]2CC[C@@]3(CCN(c4ccccc4Cl)C3=O)CC2)CC1 [Example 260, N^5-[(trans)-2-(2-chlorophenyl)-1-oxo-2-azaspiro[4.5]dec-8-yl]-N^4-[2-(4-methylpiperidin-1-yl)ethyl]-1H-imidazole-4,5-dicarboxamide]
